Source: ChEMBL document CHEMBL4422617, “Recent advances in the discovery of small molecules targeting glioblastoma” (Eur J Med Chem, 2019)

Assays:
[1] = test system: U-87 MG; test: Antitumor activity against human U87MG cells xenografted in nude-Fox1nu mouse assessed as tumor growth inhibition at 150 mg/kg bid relative to control; assay type: functional, U-87MG ATCC; details: read-out: TGI
[2] = test system: U-87 MG; test: Antiproliferative activity against human U87MG cells after 96 hrs; assay type: functional, U-87MG ATCC
[3] = test system: U-87 MG; test: Antiproliferative activity against human U87MG cells after 72 hrs by MTT assay; assay type: functional, cell-based, U-87MG ATCC
[4] = test system: SF-295; test: Cytotoxicity against human SF295 cells after 72 hrs by MTT assay; assay type: functional, cell-based; details: SF-295, 72 h
[5] = test system: PBMC; test: Cytotoxicity against human PBMC after 72 hrs by MTT assay; assay type: cell-based
[6] = test system: U-87 MG; test: Antiproliferative activity against human U87MG cells after 48 hrs by MTS assay; assay type: functional, cell-based, U-87MG ATCC
[7] = test system: U373 MG; test: Antiproliferative activity against human U373MG cells after 48 hrs by MTS assay; assay type: functional, cell-based, U-373MG ATCC
[8] = Antiproliferative activity against human U3005MG cells by CellTiter-Glo assay; assay type: functional, cell-based
[9] = Antiproliferative activity against human U3046MG cells by CellTiter-Glo assay; assay type: functional, cell-based
[10] = test system: U-87 MG; test: Cytotoxicity against human U87 cells after 72 hrs by AlamarBlue assay; assay type: functional, cell-based, U-87MG ATCC
[11] = test system: U-251; test: Cytotoxicity against human U251 cells after 72 hrs by AlamarBlue assay; assay type: functional, cell-based; details: U-251, 72 h
[12] = test system: U-87 MG; test: Cytotoxicity against human U87 cells expressing EGFRvIII after 72 hrs by AlamarBlue assay; assay type: functional, cell-based, U-87MG ATCC
[13] = test system: GBM; test: Cytotoxicity against GBM cells derived from human patient after 72 hrs by AlamarBlue assay; assay type: functional, cell-based
[14] = Antiproliferative activity against human BT74 cells after 72 hrs by WST-1 assay; assay type: functional, cell-based
[15] = Antiproliferative activity against human MGG8 cells after 72 hrs by WST-1 assay; assay type: functional, cell-based
[16] = test system: U-87 MG; test: Antiproliferative activity against human U87 cells after 72 hrs by WST-1 assay; assay type: functional, cell-based, U-87MG ATCC
[17] = test system: U-251; test: Antiproliferative activity against human U251 cells after 72 hrs by WST-1 assay; assay type: functional, cell-based; details: U-251, 72 h
[18] = test system: A 172; test: Antiproliferative activity against human A172 cells after 72 hrs by WST-1 assay; assay type: functional, cell-based; details: A 172, 72 h
[19] = Antiproliferative activity against human MGG4 cells after 72 hrs by WST-1 assay; assay type: functional, cell-based
[20] = test system: SNB-78; test: Antiproliferative activity against human SNB78 cells after 6 days by cell counting analysis; assay type: functional; details: SNB-78, 144 h
[21] = test system: U-251; test: Antitumor activity against human U251 cells xenografted in CAnN. Cg-Foxn1nu/CrlCrlj nude mouse assessed as tumor growth inhibition at 240 mg/kg, ip dosed 5 times a week for 39 days relative to control; assay type: functional; details: U-251, ip, 936 h, read-out: TGI
[22] = test system: SF-268; test: Antiproliferative activity against human SF268 cells after 6 days by cell counting analysis; assay type: functional; details: SF-268, 144 h
[23] = test system: U-251; test: Antiproliferative activity against human U251 cells after 6 days by cell counting analysis; assay type: functional; details: U-251, 144 h
[24] = test system: U-251; test: Antitumor activity against human U251 cells xenografted in CAnN. Cg-Foxn1nu/CrlCrlj nude mouse assessed as inhibition of tumor weight at 240 mg/kg, ip dosed 5 times a week for 39 days relative to control; assay type: functional; details: U-251, ip, 936 h
[25] = test system: SNB-75; test: Antiproliferative activity against human SNB75 cells after 6 days by cell counting analysis; assay type: functional; details: SNB-75, 144 h
[26] = test system: SF-539; test: Antiproliferative activity against human SF539 cells after 6 days by cell counting analysis; assay type: functional; details: SF-539, 144 h
[27] = test system: SF-295; test: Antiproliferative activity against human SF295 cells after 6 days by cell counting analysis; assay type: functional; details: SF-295, 144 h
[28] = test system: U-251; test: Antiproliferative activity against human U251 cells by MTT assay; assay type: functional, cell-based
[29] = Antiproliferative activity against human D456 cells after 7 days […] by CellTiter Glo assay; assay type: functional, cell-based; details: 168 h
[30] = Antiproliferative activity against human DBTRG cells after 72 hrs by coulter counting analysis; assay type: functional, cell-based
[31] = test system: U-251; test: Antiproliferative activity against human U251 cells after 72 hrs by coulter counting analysis; assay type: functional, cell-based; details: U-251, 72 h
[32] = test system: U-87 MG; test: Antiproliferative activity against human U87MG cells after 72 hrs by coulter counting analysis; assay type: functional, cell-based, U-87MG ATCC
[33] = test system: U-87 MG; test: Antiproliferative activity against human U87 cells; assay type: functional, cell-based, U-87MG ATCC
[34] = Antiproliferative activity against human GBM95 cells after 72 hrs by MTT assay; assay type: functional, cell-based
[35] = Cytotoxicity against human GBM6 cells after 72 hrs by MTS assay; assay type: functional; details: GBM6, 72 h, read-out: ED50 (the source's name)
[36] = Antiproliferative activity against mouse GL26 cells after 120 hrs by WST-1 assay; assay type: functional, cell-based; details: GL26, 120 h
[37] = test system: U-251; test: Antiproliferative activity against human U251 cells after 120 hrs by WST-1 assay; assay type: functional, cell-based; details: U-251, 120 h
[38] = test system: T98G; test: Antiproliferative activity against human T98G cells after 5 days by CyQuantGR dye-based fluorescence assay; assay type: functional, cell-based; details: 120 h
[39] = Cmax in […] mouse at 25 micromol/kg, ip administered as single dose by mass spectrometric analysis; assay type: ADME, organism-based; set-up: route intraperitoneal; details: in vivo, 25 µmol/kg
[40] = Tmax in […] mouse at 25 micromol/kg, ip administered as single dose by mass spectrometric analysis; assay type: ADME, organism-based; details: in vivo, 25 µmol/kg
[41] = Half life in […] mouse at 25 micromol/kg, ip administered as single dose by mass spectrometric analysis; assay type: ADME, organism-based; details: in vivo, 25 µmol/kg
[42] = test system: U-118-MG; test: Antiproliferative activity against human U118MG cells after 5 days by CyQuantGR dye-based fluorescence assay; assay type: functional, cell-based; details: 120 h
[43] = test system: U-251; test: Antiproliferative activity against human U251 cells after 5 days by CyQuantGR dye-based fluorescence assay; assay type: functional, cell-based; details: U-251, 120 h
[44] = test system: U-87 MG; test: Antiproliferative activity against human U87MG cells after 5 days by CyQuantGR dye-based fluorescence assay; assay type: functional, cell-based, U-87MG ATCC; details: 120 h
[45] = test system: SF-295; test: Antiproliferative activity against human SF295 cells after 72 hrs by MTT assay; assay type: functional, cell-based; details: SF-295, 72 h

CS(=O)(=O)N1CCN(Cc2cc3nc(-c4cccc5[nH]ncc45)nc(N4CCOCC4)c3s2)CC1 [PICTILISIB]
inhibition in vivo at 150 mg/kg [1]: 98% | GI50 [2]: 0.07 µM

O=C1C=C(O)C(=O)C(CC2CCC3CCCCC3C2)=C1O (stereo not drawn)
IC50 [3]: 23.6 µM

O=C1C=C(N[C@@H](Cc2ccccc2)C(=O)O)C(=O)c2ccccc21
IC50 [4]: 2 µM | IC50 [5]: 37.9 µM

O=C1[C@@H]2CS[C@]3(C(=O)Nc4ccccc43)N2C(=O)N1Cc1ccc(Cl)cc1
IC50 [6]: 2.5 µM | IC50 [7]: 5.7 µM

CN1CCN(CCCN2c3ccccc3Sc3ccc(C(F)(F)F)cc32)CC1 [TRIFLUOPERAZINE]
EC50 [8]: 1.85 µM | EC50 [9]: 1.34 µM

O=C(CCCc1ccc(-c2cc3ccccc3cn2)cc1)Nc1ccc(O)cc1
EC50 [10]: 0.6 to 1.3 µM | EC50 [11]: 0.6 to 1.3 µM | EC50 [12]: 0.6 to 1.3 µM | EC50 [13]: 0.54 µM

O=C(O)CNC1=CC(=O)c2ccccc2C1=O
IC50 [4]: 2.4 µM | IC50 [5]: 23.8 µM

CCn1c(C)c(C(=O)c2ccc(C)c3ccccc23)c2ccccc21
EC50 [14]: 2400 to 8600 µM | EC50 [15]: 2400 to 8600 µM | EC50 [16]: 2400 to 8600 µM | EC50 [17]: 2400 to 8600 µM | EC50 [18]: 2400 to 8600 µM | EC50 [19]: 2400 to 8600 µM

Cc1oc2nc1-c1nc(co1)C(=O)N[C@@H](Cc1ccc(O)cc1)c1nc(c(C)o1)-c1nc(c(C)o1)-c1nc(co1)C(=O)N[C@@H](Cc1ccc(O)cc1)c1nc-2c(C)o1
GI50 [20]: 0.021 to 0.18 µM | inhibition in vivo at 240 mg/kg [21]: 33% | GI50 [22]: 0.021 to 0.18 µM | GI50 [23]: 0.021 to 0.18 µM | inhibition in vivo at 240 mg/kg [24]: 61% | GI50 [25]: 0.021 to 0.18 µM | GI50 [26]: 0.021 to 0.18 µM | GI50 [27]: 0.021 to 0.18 µM

O[C@@H](c1cc(C(F)(F)F)nc2c(C(F)(F)F)cccc12)[C@H]1CCCCN1 [(S,R)-MEFLOQUINE]
IC50 [28]: 10 µM

O=C1CC(c2ccc(-c3cc[nH]n3)s2)c2cc(N3CCNC3=O)ccc2N1 (stereo not drawn)
IC50 [29]: 1.69 µM

Nc1c(-c2cccnc2)ncc2c1C(=O)c1c(-c3ccccn3)nn(-c3ccc(F)cc3F)c1C2=O
IC50 [30]: 2.5 µM | IC50 [31]: 2.5 µM | IC50 [32]: 2.5 µM

NS(=O)(=O)c1cccc2c1C(=O)c1cccc(O)c1C2=O
IC50 [33]: 0.21 µM

CC(C)=CCC1=C(NCCCCN(CN)CCCc2ccccc2)C(=O)c2ccccc2C1=O
IC50 [34]: 6.6 µM | IC50 [3]: 4.3 µM

CN1CCN(C(=O)c2ccc3c(NC4CCN(Cc5ccccc5)CC4)c4ccccc4nc3c2)CC1
EC50 [35]: 4.1 µM

C=C1/C(=C/C=C2\CCC[C@]3(C)[C@@H]([C@H](C)CCCCNC(=O)CCC(=O)O)CC[C@@H]23)C[C@@H](O)C[C@@H]1O
IC50 [36]: 0.016 nM | IC50 [37]: 0.000457 µM

Cc1ccc(N(CCn2nnc3c(C(N)=O)ncn3c2=O)CCn2nnc3c(C(N)=O)ncn3c2=O)cc1
IC50 [38]: 11.3 µM | Cmax [39]: 260 nM | Tmax [40]: 10 min | half-life [41]: 14 min | IC50 [42]: 10 µM | IC50 [43]: 5.2 µM | IC50 [44]: 14 µM

CC1(C)OC2=C(C(=O)C(=O)c3ccccc32)[C@H](n2cc(C[Se]c3ccc(F)cc3)nn2)[C@H]1Br
IC50 [45]: 1.48 µM
